Patent US20210269483A1, “PEPTIDE COMPOUNDS” (ULTUPHARMA AB, priority 2018, published 2021)
≈ marks a conversion by molar mass, not a printed value. Where two headings read alike, the source gives them in different places. Starred links: 1 amine or outer side, 2 acyl side, 3 side chain; linkers in the order of their positions; H or OH if unused. Positions of bridges follow the written chain, without caps; N, C: chain ends. Non-standard residues stand in square brackets, D forms with d. Residues, ends and D or L forms follow the SMILES beside them. X3 = CC(C)CCCCCCC[C@H](CC(=O)[*:1])O[*:2]; X4 = CCCCCCC=CC[C@H](CC(=O)[*:1])O[*:2]; Val(3-OH) = CC(C)(O)[C@H](N)C(=O)O; X1 = C/C=C(/N[*:1])C(=O)[*:2]; Dab = NCC[C@H](N)C(=O)O; Dap = NC[C@H](N)C(=O)O

Key:
A. baumannii = type: cell-based, Acinetobacter baumannii
From the text: (§1) 2015. M7-A10. Methods for dilution antimicrobial susceptibility tests for bacteria that grow aerobically, 10th ed. Approved standard. CLSI, Wayne, Pa.).
(§2) A) In the broth micro-dilution method, the test media were either AM3 Broth (BD Difco Ltd) mixed with phosphate buffered saline (PBS, Amresco LLC, Solon, USA) in 1:4 ratio (E. colt A. baumannii, Enterobacter cloacae, Klebsiella pneumonia and P. aeruginosa), AM3 Broth mixed with PBS in 1:1 ratio (S. aureus) or Malt Extract (ME; 15 g Malt Extract Dico Ltd. in 1000 mL deionized H2O; Aspergillus fumigatus). Prior to MIC-tests, the bacterial cell concentration/fungal spore concentration was adjusted to between 1 and 5×10^5 cells/spores per mL. […] Afterwards, suspensions of pathogen cells in the appropriate medium were dispensed to the wells of microtiter plates and the growth of pathogens were monitored after 16 to 20 h of incubation at 37° C. in the dark. Positive control comprised respective pathogen cells suspended in untreated sterile appropriate media without addition of compounds(s) and negative control comprised the medium only. The MIC was defined as the lowest concentration of each compound with no visible growth of pathogen. All MIC tests were performed in duplicate and/or triplicate and repeated at least twice.

E. cloacae = type: cell-based, Enterobacter cloacae
From the text: as §1, §2

E. coli = type: cell-based, Escherichia coli
From the text: as §1, §2

K. pneumoniae = type: cell-based, Klebsiella pneumonia
From the text: as §1, §2

P. aeruginosa = type: cell-based, Pseudomonas aeruginosa
From the text: as §1, §2

S. aureus = type: cell-based, Staphylococcus aureus
From the text: as §1, §2

HepG2 = system: HepG2
Description: IC50, haemolysis rate and frequency of resistance (FoR, Table 4) was determined using standard protocols by different CROs.

[1] = method A, only lower limit of concentration range shown ("16" means "16-32")

Row | Compound | MIC A. baumannii LMG1041T (A. baumannii; [1]) | MIC E. cloacae LMG2783T (E. cloacae; [1]) | MIC E. coli LMG15862 (E. coli; [1]) | MIC K. pneumonia LMG20218 (K. pneumoniae; [1]) | MIC P. aeruginosa LMG6395 (P. aeruginosa; [1]) | MIC S. aureus LMG15975 (S. aureus; [1]) | IC50 (HepG2) (HepG2; HepG2, determined by a CRO) | MIC A. baumannii LMG1041T (A. baumannii) | MIC E. cloacae LMG2783T (E. cloacae) | MIC E. coli LMG15862 (E. coli) | MIC K. pneumonia LMG20218 (K. pneumoniae) | MIC P. aeruginosa LMG6395 (P. aeruginosa) | MIC S. aureus LMG15975 (S. aureus) | IC50 (HepG2) (HepG2)
1 | Table 2 cyclic lipodepsipeptide: R C10H21; Asn-Leu-DABA-ABA-Thr-DAPA-Phe-OHVal-Asp [U810] | 8 µg/mL | 8 µg/mL | 8 µg/mL | >32 µg/mL | >32 µg/mL | 16 µg/mL | 15 µg/mL | – | – | – | – | – | – | –
2 | Table 2 cyclic lipodepsipeptide: R C8H17; DAPA-Leu-DABA-ABA-Thr-DAPA-Phe-OHVal-Asp [U755b] | 2 µg/mL | 2 µg/mL | 8 µg/mL | 8 µg/mL | 4 µg/mL | 16 µg/mL | 34 µg/mL | – | – | – | – | – | – | –
3 | C/C=C1/NC(=O)[C@H](CCN)NC(=O)[C@H](CC(C)C)NC(=O)[C@H](CN)NC(=O)C[C@@H](CCCCCCCC(C)C)OC(=O)[C@H](CC(=O)O)NC(=O)[C@H](C(C)(C)O)NC(=O)[C@@H](Cc2ccccc2)NC(=O)[C@H](CN)NC(=O)[C@H]([C@@H](C)O)NC1=O [U773, cyclo-((R)-3-hydroxy-11-methyldodecanoyl-L-DAPA-L-Leu-L-DABA-ABA-L-Thr-L-DAPA-D-Phe-L-OHVal-L-Asp)] ([Dap]L[Dab][X1]T[Dap][dF][Val(3-OH)]D; linker N-C via X3) | – | – | – | – | – | – | – | 4 µg/mL (≈ 3.45 µM) | 8 µg/mL (≈ 6.9 µM) | 2 µg/mL (≈ 1.73 µM) | 16 µg/mL (≈ 13.8 µM) | 8 µg/mL (≈ 6.9 µM) | 16 µg/mL (≈ 13.8 µM) | 8 µg/mL (≈ 6.9 µM)
4 | Table 2 cyclic lipodepsipeptide: R C8H17; DAPA-Leu-DABA-ABA-Thr-DAPA-Phe-OHVal-Asp [U754] | 2 µg/mL | 4 µg/mL | 4 µg/mL | 4 µg/mL | 8 µg/mL | 8 µg/mL | 20 µg/mL | – | – | – | – | – | – | –
5 | Table 2 cyclic lipodepsipeptide: R C7H15; DAPA-Leu-DABA-ABA-Thr-DAPA-Phe-OHVal-Asp [U744] | 16 µg/mL | 16 µg/mL | 16 µg/mL | 8 µg/mL | 16 µg/mL | >32 µg/mL | 72 µg/mL | – | – | – | – | – | – | –
6 | Table 2 cyclic lipodepsipeptide: R C10H21; DAPA-Leu-DABA-ABA-Thr-DAPA-Phe-Val-Asp [U800] | 8 µg/mL | 8 µg/mL | 8 µg/mL | >32 µg/mL | 16 µg/mL | 16 µg/mL | 12 µg/mL | – | – | – | – | – | – | –
7 | Table 2 cyclic lipodepsipeptide: R C9H17; DAPA-Leu-DABA-ABA-Thr-DAPA-Phe-Val-Asp [U775] | 8 µg/mL | 4 µg/mL | 4 µg/mL | 16 µg/mL | 4 µg/mL | 16 µg/mL | 9 µg/mL | – | – | – | – | – | – | –
8 | C/C=C1/NC(=O)[C@H](CCN)NC(=O)[C@H](CC(C)C)NC(=O)[C@H](CC(N)=O)NC(=O)C[C@@H](CCCCCCCC(C)C)OC(=O)[C@H](CC(=O)O)NC(=O)[C@H](C(C)C)NC(=O)[C@@H](Cc2ccccc2)NC(=O)[C@H](CN)NC(=O)[C@H]([C@@H](C)O)NC1=O [U824, cyclo-((R)-3-hydroxy-11-methyldodecanoyl-L-Asn-L-Leu-L-DABA-ABA-L-Thr-L-DAPA-D-Phe-L-Val-L-Asp)] (NL[Dab][X1]T[Dap][dF]VD; linker N-C via X3) | – | – | – | – | – | – | – | 16 µg/mL (≈ 13.7 µM) | >32 µg/mL | 16 µg/mL (≈ 13.7 µM) | >32 µg/mL | >32 µg/mL | >32 µg/mL | 35 µg/mL (≈ 29.9 µM)
9 | Table 2 cyclic lipodepsipeptide: R C9H17; DAPA-Leu-DABA-ABA-Thr-Asn-Phe-Val-Asp [U826] | 8 µg/mL | 16 µg/mL | 8 µg/mL | >32 µg/mL | 16 µg/mL | 16 µg/mL | 23 µg/mL | – | – | – | – | – | – | –
10 | Table 2 cyclic lipodepsipeptide: R C8H17; DAPA-Leu-DABA-ABA-Thr-DAPA-Phe-OHVal-Asp [U751] | 4 µg/mL | 4 µg/mL | 2 µg/mL | 4 µg/mL | 8 µg/mL | 16 µg/mL | 29 µg/mL | – | – | – | – | – | – | –
11 | Table 2 cyclic lipodepsipeptide: R C9H17; DAPA-Leu-DABA-ABA-Thr-DAPA-Phe-OHVal-Asp [U757] | 4 µg/mL | 8 µg/mL | 8 µg/mL | 8 µg/mL | 8 µg/mL | 16 µg/mL | 28 µg/mL | – | – | – | – | – | – | –
12 | C/C=C1/NC(=O)[C@H](CCN)NC(=O)[C@H](CC(C)C)NC(=O)[C@H](CN)NC(=O)C[C@@H](CC=CCCCCCC)OC(=O)[C@H](CC(=O)O)NC(=O)[C@H](C(C)(C)O)NC(=O)[C@@H](Cc2ccccc2)NC(=O)[C@H](CN)NC(=O)[C@H]([C@@H](C)O)NC1=O [U756, cyclo-((R)-3-hydroxydodec-5-enoyl-L-DAPA-L-Leu-L-DABA-ABA-L-Thr-L-DAPA-D-Phe-L-OHVal-L-Asp)] ([Dap]L[Dab][X1]T[Dap][dF][Val(3-OH)]D; linker N-C via X4) | – | – | – | – | – | – | – | 1 µg/mL (≈ 0.875 µM) | 2 µg/mL (≈ 1.75 µM) | 1 µg/mL (≈ 0.875 µM) | 2 µg/mL (≈ 1.75 µM) | 4 µg/mL (≈ 3.5 µM) | 4 µg/mL (≈ 3.5 µM) | –
13 | C/C=C1/NC(=O)[C@H](CCN)NC(=O)[C@H](CC(C)C)NC(=O)[C@H](CN)NC(=O)C[C@@H](CCCCCCCC(C)C)OC(=O)[C@H](CC(=O)O)NC(=O)[C@H](C(C)C)NC(=O)[C@@H](Cc2ccccc2)NC(=O)[C@H](CN)NC(=O)[C@H]([C@@H](C)O)NC1=O [U793, cyclo-((R)-3-hydroxy-11-methyldodecanoyl-L-DAPA-L-Leu-L-DABA-ABA-L-Thr-L-DAPA-D-Phe-L-Val-L-Asp)] ([Dap]L[Dab][X1]T[Dap][dF]VD; linker N-C via X3) | – | – | – | – | – | – | – | 4 µg/mL (≈ 3.5 µM) | 16 µg/mL (≈ 14 µM) | 4 µg/mL (≈ 3.5 µM) | >32 µg/mL | 8 µg/mL (≈ 7 µM) | >32 µg/mL | 9 µg/mL (≈ 7.87 µM)
14 | Table 2 cyclic lipodepsipeptide: R C8H17; DAPA-Leu-DABA-ABA-Thr-DAPA-Phe-OHVal-Asp [U755a] | 8 µg/mL | 8 µg/mL | 8 µg/mL | 8 µg/mL | 8 µg/mL | 16 µg/mL | 39 µg/mL | – | – | – | – | – | – | –
15 | Table 2 cyclic lipodepsipeptide: R C9H17; DAPA-Leu-DABA-ABA-Thr-DAPA-Phe-Val-Asp [U771] | 1 µg/mL | 2 µg/mL | 1 µg/mL | 2 µg/mL | 2 µg/mL | 2 µg/mL | 9 µg/mL | – | – | – | – | – | – | –
16 | Table 2 cyclic lipodepsipeptide: R C10H21; Asn-Leu-DABA-ABA-Thr-DAPA-Phe-Val-Asp [U842] | 8 µg/mL | >32 µg/mL | 16 µg/mL | >32 µg/mL | 16 µg/mL | 8 µg/mL | 22 µg/mL | – | – | – | – | – | – | –
